Article PMC6014988, “Precision therapeutic targeting of human cancer cell motility” (Nature Communications, 2018)

Columns and labels:
[1] = target: T1, MKK4 (Homo sapiens, UniProt P45985, S257E/T261E); test: Fluorescence-based thermal shift assay, MKK4; format: binding
T1 construct: made in house; host or cells: KRX E. coli
Procedure: Fluorescent thermal shift, isothermal titration calorimetry, and biolayer interferometry assays[46] were all performed as described by us using MEK4EE (37-399, S257E, T261E) cloned into pMCSG7 and KRX Competent E. coli cells (Promega Inc.) and above denoted full-length HSP90B and CDC37 vectors and Rosetta BL-21 and BL-21 DE-3 competent E. coli cells, respectively. DARTS assays were conducted as described, using equimolar amounts of CDC37 and HSP90β, thermolysin digestion, and silver stain visualization (ProteoSilver Silver Stain Kit, Sigma-Aldrich).
Supplementary Figure 9. […] (a) Depiction of […]
established MKK4 pathway regulating human PCa cell metastasis. […]
to MKK4, as measured by fluorescence-based thermal shift assay. Values are the mean±SD (of N=2 replicates) increase in melting temperature (ΔTm) of purified recombinant MKK4 induced by the indicated concentrations of KBU2046 or genistein. […]
in an in vitro kinase assay. The indicated concentrations of KBU2046 were added to recombinant activated MKK4, and its ability to phosphorylate kinase dead p38α MAPK (K53A) was measured by Western blot for total (p38 MAPK) and phosphorylated (pp38 MAPK) forms of […]
HSP27 in cells. PC3-M cells were pre-treated for 24 hours with 50 µM KBU2046 or genistein, as indicated, then with TGFβ, and Western blot performed. […]

[2] = Single intravenous dose organ function study; format: in vivo; conditions: CD1 mice, single iv 15, 75 or 125 mg/kg, day 8 and 14
Text: Supplementary Figure 7. KBU2046 treatment is not associated with systemic off-target effects. For histologic examination of tissue, cohorts of N=5 male 6-8 week old Balb/c athymic […]
KBU2046 as described in manuscript Figure 2a. After 35 days of treatment, the following organs were harvested at necropsy, and stained with H&E (alternative staining methods as indicated): heart, lungs, esophagus, stomach, colon, small intestine, liver (Trichrome staining), kidneys (Trichrome staining), adrenals, bladder, prostate, spleen, pancreas, brain, testes, and bone marrow and peripheral blood (Giemsa staining). Organs were examined for damage using a semi-quantitative histological scoring system, as described 4. […]
except in the livers of both control and treatment mice. Changes in the liver observed in control mice were not increased by KBU2046 treatment. […]
gm/mouse, this translated to 5-7 week old females and 4.5-5.5 week old males. […] On day 8 and 14, all critical organs were weighed, and the following parameters measured in blood: cholesterol, triglycerides, alanine aminotransferase (ALT), aspartate aminotransferase (AST), total bilirubin, glucose, phosphorus, total protein, calcium, blood urea nitrogen (BUN), creatinine, albumin, Na, K, Cl, white blood cells (with differential), red blood cells, hemoglobin, […]

[3] = test system: PC3-M cells; test: Cell invasion of PC3-M cells with altered HSP90β; format: cell-based, human
Procedure: Fig. 4 KBU2046 decreases phosphorylation of HSP90β. a Probing for KBU2046-induced changes in protein phosphorylation. PC3-M or PC3 cells were pre-treated with 10 µM KBU2046 for 3 days, then with ±TGFβ and the resultant cell lysate probed for changes in protein phosphorylation with the KinomeView® assay. The depicted western blot utilizes KinomeView® phospho-motif antibody, BL4176; the blue arrow denotes an 83 kDa band whose phosphorylation is inhibited by KBU2046 (see Supplementary Fig. 10 for complete KinomeView® assay screening data). b Proteomic analysis. PC3 cells were pre-treated with KBU2046 or vehicle, then with TGFβ, proteins from the resultant cell lysate were immunoprecipitated with BL4176, and HSP90β was identified by LC-MS/MS analysis (see Supplementary Fig. 12 for expanded proteomic assay data). The phospho-motif recognized by the antibody is underlined; S*—denotes Ser226, whose phosphorylation is decreased by KBU2046. c, d The phospho-mimetic changes in HSP90β Ser^226 structure regulate human PCa cell invasion and KBU2046 efficacy. PC3-M cells were transfected with S226A-, S226D-, or WT-HSP90β, or empty vector (VC), treated with KBU2046 or vehicle, and cell invasion measured. Values are the mean ± SEM of a representative experiment of multiple experiments (all in replicates of N = 3); *denotes t-test P value <0.05 between bracketed conditions, or compared to VC […]
Boyden chamber cell invasion assays were performed as previously described by us[30], using either denatured collagen (BD Biosciences) or type IV human collagen (BD Biosciences), with all experiments repeated, each in N = 4 replicates. In some experiments, as indicated, cells were transfected with an expression plasmid, using Lipofectamine 2000™ (Invitrogen), or with siRNA, using DharmaFect Duo (Thermo Scientific) and co-transfected with β-Galactosidase (Plasmid pCMV•SPORT-βgal; Life Technology).
Supplementary Figure 13. Changes in HSP90β Ser226 structure as well as HSP90β expression regulate PCa cell invasion and KBU2046 efficacy. (a) Levels of HSP90β expression after transfection of cells. In manuscript Figs 4c and d, PC3-M cells were transfected with S226A-, S226D-, or WT-HSP90β, or empty vector (VC) and resultant effects upon cell invasion and KBU2046 efficacy measured. Depicted above are associated Western blots probing for HSP90β, FLAG (transfected HSP90β was FLAG-tagged) and GAPDH. (b-d) Knockdown of HSP90β decreases cell invasion and abrogates KBU2046 efficacy. PC3-M cells were transfected with siRNA to HSP90β (siHSP90b) or non-targeting siRNA (siCO). (b) The level of HSP90β (HSP90b) and HSP90α (HSP90a) transcript levels were measured by qRT/PCR, and expressed relative to that of GAPDH. (c) The level of HSP90β protein expression was measured by Western blot. (d) Cells were treated with KBU2046 (46) or vehicle control, and cell invasion measured. Values are the mean±SEM of a representative experiment of multiple experiments (all in replicates of N=3). *denotes t-test P value </= 0.05 compared to siCO.

T1 sequence (P45985 37-399 S257E/T261E): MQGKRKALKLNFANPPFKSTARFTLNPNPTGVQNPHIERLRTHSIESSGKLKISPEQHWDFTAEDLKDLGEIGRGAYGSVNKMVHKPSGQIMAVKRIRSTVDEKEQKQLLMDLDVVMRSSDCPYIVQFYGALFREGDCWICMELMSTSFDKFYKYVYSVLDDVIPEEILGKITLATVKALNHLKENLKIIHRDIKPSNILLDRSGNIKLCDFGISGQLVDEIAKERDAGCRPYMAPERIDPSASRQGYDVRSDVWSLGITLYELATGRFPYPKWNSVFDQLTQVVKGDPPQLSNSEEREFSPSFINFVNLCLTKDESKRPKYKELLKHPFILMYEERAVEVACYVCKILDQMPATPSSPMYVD

For `O=C1c2ccccc2OCC1c1ccc(F)cc1` (racemic) [KBU2046, (±)-3(4-fluorophenyl)chroman-4-one], the “binding to MKK4” value [1] was “did not bind to MKK4”, the “organ weights, clinical chemistry and blood parameters” value [2] was “No abnormal alterations” and the cell invasion ([3]; (S226A)-HSP90β transfected cells) was “does not further inhibit cell invasion”. The cell invasion ([3]; (S226D)-HSP90β transfected cells) was “did not significantly inhibit cell invasion”, the cell invasion ([3]; VC and WT-HSP90β cells) was “significantly inhibited invasion” and the cell invasion ([3]; VC cells) was “significantly inhibits invasion”. For the same compound, the anti-invasion efficacy ([3]; siRNA-mediated HSP90β knockdown) was “abrogated KBU2046 efficacy”.
